Activity calls are given as the source filed them.
Columns and labels:
[1] = target: T1, DNA repair and recombination protein RAD54-like (Homo sapiens, UniProt Q92698); experiment: RAD54 Holliday junction migration blockers – biochemical, fluorescence, cherry-picked samples, dose series, confirmation (AID 651657); assay type: functional
T1 sequence (Q92698 whole entry): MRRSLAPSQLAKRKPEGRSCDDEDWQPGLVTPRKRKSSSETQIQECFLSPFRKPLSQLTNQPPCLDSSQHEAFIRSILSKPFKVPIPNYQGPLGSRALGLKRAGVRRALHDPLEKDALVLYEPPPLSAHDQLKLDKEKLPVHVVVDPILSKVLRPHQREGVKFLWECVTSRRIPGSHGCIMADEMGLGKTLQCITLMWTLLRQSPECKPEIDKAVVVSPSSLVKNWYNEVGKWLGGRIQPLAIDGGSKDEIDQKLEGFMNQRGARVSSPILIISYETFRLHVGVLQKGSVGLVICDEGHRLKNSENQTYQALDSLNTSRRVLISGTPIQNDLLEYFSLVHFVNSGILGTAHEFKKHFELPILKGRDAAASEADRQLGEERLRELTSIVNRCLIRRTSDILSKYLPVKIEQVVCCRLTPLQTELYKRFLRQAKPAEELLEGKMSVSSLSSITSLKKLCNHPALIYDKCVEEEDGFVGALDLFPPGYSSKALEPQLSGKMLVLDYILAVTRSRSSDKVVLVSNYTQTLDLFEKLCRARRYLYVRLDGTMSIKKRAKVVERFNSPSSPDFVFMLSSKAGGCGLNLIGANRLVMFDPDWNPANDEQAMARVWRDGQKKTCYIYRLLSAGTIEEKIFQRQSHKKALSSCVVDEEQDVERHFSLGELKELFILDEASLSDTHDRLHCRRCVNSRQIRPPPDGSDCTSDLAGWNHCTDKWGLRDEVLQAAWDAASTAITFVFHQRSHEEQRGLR

[2] = viability of HCT116 lacking mutant beta-catenin – cell-based, human colon tumor, dose response (AID 1045); assay type: functional;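 further: HCT116 colon tumor cells with beta catenin knocked out; cells exposed to compound for 60 hours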
[3] = cytotoxicity toward MDA-MB-231 breast cancer cells – cell-based, CellTiter-Glo luminescence, cherry-pick, cytotoxicity control for RAD54 inhibitor project, dose response (AID 651692); assay type: functional
[4] = NIH3T3 cell viability loss – ATP luminescence, mouse fibroblasts, counter-screen, dose response (AID 2010); assay type: functional, cell-based;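 further: cells exposed to compound for about 90 hours before reading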
[5] = Trypanosoma cruzi growth suppression in host cells – NIH3T3 host cells, beta-gal luminescence, confirmation (AID 2044); assay type: functional, cell-based;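 further: intracellular parasites grown in NIH/3T3 mouse fibroblasts as host cells; luminescent beta-galactosidase reporter signal from transgenic T. cruzi replicating inside host cells; inhibitors lower the luminescence signal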
[6] = viability of PTEN-deleted HCT116 cells – cell-based, HCT116 PTEN knockout, dose response (AID 1047); assay type: functional;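 further: HCT116 colon tumor cells with PTEN knocked out; cells exposed to compound for 60 hours before readout; potency for loss of cell viability measured by luminescence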
[7] = acridine orange displacement from DNA – biochemical, fluorescence polarization, cherry-pick, artefact control for RAD54 inhibitor project, dose response (AID 651673); assay type: functional
[8] = target: 5-hydroxytryptamine receptor 2A (Mus musculus, UniProt P35363); assay type: functional, cell-based;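 further: CHO-K1 cells with tagged receptor and beta-arrestin; agonist potency measured as compound-induced activation of the receptor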
[9] = target: Mu-type opioid receptor (Homo sapiens, UniProt P35372); assay type: functional, cell-based;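 further: U2OS cells with beta-arrestin recruitment to OPRM1 by beta-gal complementation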
[10] = target: SWI/SNF-related matrix-associated actin-dependent regulator of chromatin subfamily A member 2 (Homo sapiens, UniProt P51531); experiment: Luminescence-based cell-based high throughput dose response assay to identify activators of the function of SWI/SNF related, matrix associated, actin dependent regulator of chromatin, subfamily a, member 2 (SMARCA2, BRM).; assay type: functional
[11] = Counterscreen for activators of the function of SWI/SNF related, matrix associated, actin dependent regulator of chromatin, subfamily a, member 2 (SMARCA2, BRM): Luminescence-based cell-based high throughput dose response assay to identify non-selective compounds using the VP16 reporter assay.; assay type: functional
[12] = target: T2, Rac GTPase-activating protein 1 (Homo sapiens, UniProt Q9H0H5); experiment: blockers of MgcRacGAP-driven Rac1 GTP hydrolysis – biochemical, ADP Hunter fluorescence, primary and confirmatory, confirmation (AID 624330); assay type: functional
T2 sequence (Q9H0H5 whole entry): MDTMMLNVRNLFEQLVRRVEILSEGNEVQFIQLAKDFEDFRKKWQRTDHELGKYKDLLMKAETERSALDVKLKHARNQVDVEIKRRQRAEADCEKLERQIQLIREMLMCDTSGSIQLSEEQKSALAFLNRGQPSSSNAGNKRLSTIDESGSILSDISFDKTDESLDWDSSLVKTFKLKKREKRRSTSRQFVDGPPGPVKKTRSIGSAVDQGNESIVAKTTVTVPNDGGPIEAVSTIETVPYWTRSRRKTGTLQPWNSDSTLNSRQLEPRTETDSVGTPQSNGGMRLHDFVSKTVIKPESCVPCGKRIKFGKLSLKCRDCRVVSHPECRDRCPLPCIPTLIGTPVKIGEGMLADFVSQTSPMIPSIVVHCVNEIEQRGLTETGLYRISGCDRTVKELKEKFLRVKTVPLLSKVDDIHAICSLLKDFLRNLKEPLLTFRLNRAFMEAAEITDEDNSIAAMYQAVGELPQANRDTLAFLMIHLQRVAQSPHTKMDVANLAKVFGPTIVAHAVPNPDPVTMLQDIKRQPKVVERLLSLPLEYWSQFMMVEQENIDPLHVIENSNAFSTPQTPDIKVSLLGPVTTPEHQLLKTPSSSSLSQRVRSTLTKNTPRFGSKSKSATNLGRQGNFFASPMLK

[13] = viability loss in HeLa cells – cytotoxicity control for MgcRacGAP inhibitor project, dose response (AID 624300); assay type: functional
[14] = target: T3, Sentrin-specific protease 1 (Homo sapiens, UniProt Q9P0U3); experiment: SENP1 catalytic domain blockers, concentration series – biochemical, kinetic FRET, dose response (AID 651697); assay type: functional; settings: read-out: IC50_Mean
T3 sequence (Q9P0U3 whole entry, the tested form may be a part): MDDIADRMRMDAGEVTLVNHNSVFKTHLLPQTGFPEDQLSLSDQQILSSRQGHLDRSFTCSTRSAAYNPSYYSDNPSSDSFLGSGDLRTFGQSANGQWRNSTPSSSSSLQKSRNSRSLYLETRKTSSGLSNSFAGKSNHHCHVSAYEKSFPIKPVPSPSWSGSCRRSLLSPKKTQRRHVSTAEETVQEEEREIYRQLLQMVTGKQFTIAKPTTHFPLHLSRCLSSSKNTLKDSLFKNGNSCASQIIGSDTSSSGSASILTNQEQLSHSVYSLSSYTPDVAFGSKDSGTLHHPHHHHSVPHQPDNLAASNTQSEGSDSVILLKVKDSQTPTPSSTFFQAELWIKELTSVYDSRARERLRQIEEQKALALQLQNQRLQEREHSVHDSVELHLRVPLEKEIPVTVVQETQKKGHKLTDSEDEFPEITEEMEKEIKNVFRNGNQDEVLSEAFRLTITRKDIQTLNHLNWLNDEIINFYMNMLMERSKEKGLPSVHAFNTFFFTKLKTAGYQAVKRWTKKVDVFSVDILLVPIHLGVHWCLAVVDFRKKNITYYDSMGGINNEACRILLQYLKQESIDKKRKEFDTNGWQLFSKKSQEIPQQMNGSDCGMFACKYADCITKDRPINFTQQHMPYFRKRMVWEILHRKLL

[15] = target: T3, Sentrin-specific protease 1; experiment: Dose response confirmation of small molecule inhibitors of the catalytic domain of the SUMO protease, SENP1 in a FRET assay.; assay type: functional; settings: read-out: IC50_Mean
[16] = target: T4, Small ubiquitin-related modifier 1 (Homo sapiens, UniProt P63165); experiment: SUMO1 protein-protein binding blockers, potency – biochemical, FRET, dose response (AID 624383); assay type: functional; settings: read-out: IC50_Mean
T4 sequence (P63165 whole entry): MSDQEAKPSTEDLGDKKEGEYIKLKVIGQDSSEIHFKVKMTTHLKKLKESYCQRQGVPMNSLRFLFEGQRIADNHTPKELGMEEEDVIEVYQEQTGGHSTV

[17] = target: T5, SUMO-activating enzyme (Homo sapiens, UniProt Q9UBT2); experiment: blockers of UBC9-mediated SUMO conjugation – biochemical, AlphaScreen, SUMOylation inhibitor project, confirmation (AID 2018); assay type: functional
[18] = target: Dual specificity protein phosphatase 3 (Homo sapiens, UniProt P51452); experiment: VHR phosphatase inhibition, dose response, selectivity assay for STEP inhibitor project, biochemical (AID 602374); assay type: functional; settings: read-out: IC50_Mean
Chain of Dual specificity protein phosphatase 3 (P51452 whole entry): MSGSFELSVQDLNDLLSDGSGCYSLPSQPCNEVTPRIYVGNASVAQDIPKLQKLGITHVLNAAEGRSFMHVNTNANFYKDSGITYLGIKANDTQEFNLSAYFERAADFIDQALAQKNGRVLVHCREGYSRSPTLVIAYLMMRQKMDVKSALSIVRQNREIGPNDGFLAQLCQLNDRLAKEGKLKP

[19] = target: Tyrosine-protein phosphatase non-receptor type 5 (Homo sapiens, UniProt P54829); experiment: PTPN5 enzyme inhibition – biochemical, fluorescence intensity, uHTS hits, confirmation (AID 602372); assay type: functional; settings: read-out: IC50_Mean
[20] = target: T5, SUMO-activating enzyme; experiment: blockers of SAE1/SAE2–UBC9 SUMO transfer – biochemical, HTRF, uHTS, primary screen (AID 2006); assay type: protein-complex assay
[21] = target: Tyrosine-protein phosphatase non-receptor type 22 (Homo sapiens, UniProt Q9Y2R2); experiment: lymphoid phosphatase LYP inhibitors – biochemical, selectivity assay for STEP inhibitor project, dose response (AID 624241); assay type: functional
[22] = target: Tyrosine-protein phosphatase non-receptor type 11 (Homo sapiens, UniProt Q06124); experiment: PTPN11 enzyme inhibitors – biochemical, selectivity assay for STEP inhibitor project, dose response (AID 602367); assay type: functional; settings: read-out: IC50_Mean
[23] = target: T4, Small ubiquitin-related modifier 1; experiment: SUMO1 protein interaction blockers, potency – biochemical, fluorescence polarization, uHTS hits, dose response (AID 624382); assay type: functional; settings: read-out: IC50_Mean
[24] = target: T6, Voltage-gated N-type calcium channel alpha-1B subunit/Amyloid beta A4 precursor protein-binding family A member 1 (Homo sapiens, UniProt Q00975+Q02410); assay type: protein assay
T6 sequence (Q00975 whole entry): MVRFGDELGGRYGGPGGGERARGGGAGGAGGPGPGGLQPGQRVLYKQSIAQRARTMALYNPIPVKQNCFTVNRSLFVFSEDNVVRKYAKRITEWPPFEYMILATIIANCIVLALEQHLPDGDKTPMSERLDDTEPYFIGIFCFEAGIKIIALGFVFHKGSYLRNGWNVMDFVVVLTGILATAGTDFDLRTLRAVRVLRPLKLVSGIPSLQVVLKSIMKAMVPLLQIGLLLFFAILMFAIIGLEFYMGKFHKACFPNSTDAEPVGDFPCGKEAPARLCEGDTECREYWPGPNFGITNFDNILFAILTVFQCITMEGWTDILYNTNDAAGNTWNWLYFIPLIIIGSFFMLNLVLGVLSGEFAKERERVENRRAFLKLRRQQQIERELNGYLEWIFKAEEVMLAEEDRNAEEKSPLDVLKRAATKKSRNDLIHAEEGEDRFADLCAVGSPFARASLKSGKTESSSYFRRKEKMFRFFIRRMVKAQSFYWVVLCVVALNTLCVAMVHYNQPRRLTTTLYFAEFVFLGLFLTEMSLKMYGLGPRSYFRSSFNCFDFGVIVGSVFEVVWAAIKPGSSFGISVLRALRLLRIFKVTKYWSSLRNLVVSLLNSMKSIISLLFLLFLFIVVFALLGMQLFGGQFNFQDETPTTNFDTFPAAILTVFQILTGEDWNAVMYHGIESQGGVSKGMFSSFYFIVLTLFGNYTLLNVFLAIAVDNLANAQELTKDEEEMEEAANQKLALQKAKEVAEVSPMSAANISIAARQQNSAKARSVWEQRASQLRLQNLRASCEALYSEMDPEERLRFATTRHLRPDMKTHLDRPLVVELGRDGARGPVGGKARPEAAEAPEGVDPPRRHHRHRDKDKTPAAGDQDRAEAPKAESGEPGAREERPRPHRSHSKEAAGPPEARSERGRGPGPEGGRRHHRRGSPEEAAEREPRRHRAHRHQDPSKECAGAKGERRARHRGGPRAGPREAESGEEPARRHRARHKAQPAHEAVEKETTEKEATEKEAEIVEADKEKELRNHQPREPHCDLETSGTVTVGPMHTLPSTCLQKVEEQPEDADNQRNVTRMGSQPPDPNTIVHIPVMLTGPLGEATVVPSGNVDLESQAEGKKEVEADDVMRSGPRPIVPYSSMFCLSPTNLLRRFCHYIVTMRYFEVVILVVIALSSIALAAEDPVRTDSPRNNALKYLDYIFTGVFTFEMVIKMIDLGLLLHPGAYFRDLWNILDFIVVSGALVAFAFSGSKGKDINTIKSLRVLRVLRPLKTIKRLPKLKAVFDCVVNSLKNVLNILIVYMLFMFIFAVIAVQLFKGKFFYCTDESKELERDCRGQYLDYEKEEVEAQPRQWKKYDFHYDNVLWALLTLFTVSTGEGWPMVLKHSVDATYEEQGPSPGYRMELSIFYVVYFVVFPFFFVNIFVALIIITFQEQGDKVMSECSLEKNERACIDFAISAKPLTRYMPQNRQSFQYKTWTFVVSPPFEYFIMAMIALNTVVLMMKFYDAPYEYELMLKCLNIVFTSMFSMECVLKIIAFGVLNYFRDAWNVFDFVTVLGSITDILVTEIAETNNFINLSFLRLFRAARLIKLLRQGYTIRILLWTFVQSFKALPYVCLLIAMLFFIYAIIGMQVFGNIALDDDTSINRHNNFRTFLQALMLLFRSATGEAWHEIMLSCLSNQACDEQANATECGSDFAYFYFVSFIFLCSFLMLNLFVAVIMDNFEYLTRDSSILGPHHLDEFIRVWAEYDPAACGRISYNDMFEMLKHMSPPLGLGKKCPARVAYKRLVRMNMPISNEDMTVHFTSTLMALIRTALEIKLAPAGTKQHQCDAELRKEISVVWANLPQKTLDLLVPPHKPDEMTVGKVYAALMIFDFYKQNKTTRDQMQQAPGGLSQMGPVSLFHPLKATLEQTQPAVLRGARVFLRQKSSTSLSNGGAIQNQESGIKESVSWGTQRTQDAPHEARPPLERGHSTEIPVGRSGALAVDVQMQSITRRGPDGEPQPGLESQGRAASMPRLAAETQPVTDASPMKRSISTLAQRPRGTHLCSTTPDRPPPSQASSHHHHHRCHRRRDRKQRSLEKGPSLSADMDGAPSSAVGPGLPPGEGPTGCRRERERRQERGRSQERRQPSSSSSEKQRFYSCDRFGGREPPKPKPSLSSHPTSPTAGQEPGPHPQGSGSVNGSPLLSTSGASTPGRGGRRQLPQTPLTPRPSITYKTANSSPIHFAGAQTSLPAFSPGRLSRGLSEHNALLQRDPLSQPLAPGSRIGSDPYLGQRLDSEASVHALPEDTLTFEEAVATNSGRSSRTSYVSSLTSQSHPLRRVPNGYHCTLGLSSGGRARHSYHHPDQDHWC
T6 sequence (Q02410 whole entry): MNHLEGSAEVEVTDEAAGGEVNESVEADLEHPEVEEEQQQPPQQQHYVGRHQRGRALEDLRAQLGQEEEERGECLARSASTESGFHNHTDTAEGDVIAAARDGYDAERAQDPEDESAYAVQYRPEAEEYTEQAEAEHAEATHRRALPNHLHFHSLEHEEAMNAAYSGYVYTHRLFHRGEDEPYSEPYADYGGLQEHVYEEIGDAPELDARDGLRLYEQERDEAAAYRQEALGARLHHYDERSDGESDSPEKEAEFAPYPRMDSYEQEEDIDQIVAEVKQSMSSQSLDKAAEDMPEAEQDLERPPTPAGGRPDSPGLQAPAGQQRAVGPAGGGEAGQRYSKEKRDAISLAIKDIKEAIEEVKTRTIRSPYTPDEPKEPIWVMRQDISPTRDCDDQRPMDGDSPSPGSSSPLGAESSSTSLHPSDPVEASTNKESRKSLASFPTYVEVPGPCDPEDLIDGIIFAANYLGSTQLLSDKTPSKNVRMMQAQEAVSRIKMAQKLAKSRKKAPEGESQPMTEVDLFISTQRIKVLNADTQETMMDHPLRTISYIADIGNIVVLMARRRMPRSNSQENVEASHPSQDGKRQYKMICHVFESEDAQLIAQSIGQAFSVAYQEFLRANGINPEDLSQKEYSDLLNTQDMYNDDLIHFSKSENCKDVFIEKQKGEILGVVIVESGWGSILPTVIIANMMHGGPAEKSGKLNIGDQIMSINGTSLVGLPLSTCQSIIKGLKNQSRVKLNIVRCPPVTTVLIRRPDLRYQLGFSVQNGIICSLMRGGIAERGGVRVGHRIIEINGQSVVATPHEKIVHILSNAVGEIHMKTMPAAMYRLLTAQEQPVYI

[25] = target: T6, Voltage-gated N-type calcium channel alpha-1B subunit/Amyloid beta A4 precursor protein-binding family A member 1; assay type: protein assay; remark: listed apart in the source
[26] = target: T7, Trace amine-associated receptor 1 (Homo sapiens, UniProt Q96RJ0); experiment: Fluorescence-based cell-based high throughput dose response assay to identify agonists of the human trace amine associated receptor 1 (TAAR1).; assay type: functional
T7 sequence (Q96RJ0 whole entry): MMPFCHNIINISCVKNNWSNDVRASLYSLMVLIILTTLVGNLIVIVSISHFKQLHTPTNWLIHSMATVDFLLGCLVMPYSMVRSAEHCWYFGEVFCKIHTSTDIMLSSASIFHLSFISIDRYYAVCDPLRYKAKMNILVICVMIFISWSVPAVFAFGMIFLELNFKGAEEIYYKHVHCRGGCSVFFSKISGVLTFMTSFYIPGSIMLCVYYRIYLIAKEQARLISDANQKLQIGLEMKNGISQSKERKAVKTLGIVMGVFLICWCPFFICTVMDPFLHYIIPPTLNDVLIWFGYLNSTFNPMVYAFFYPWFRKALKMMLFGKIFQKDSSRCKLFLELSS

[27] = cells; assay type: functional, cell-based
[28] = cells; assay type: functional, cell-based; remark: listed apart in the source
[29] = target: T7, Trace amine-associated receptor 1; experiment: Counterscreen for agonists of the human trace amine associated receptor 1 (hTAAR1): Fluorescence-based cell-based high throughput dose response assay to identify hTAAR1 agonist that also desensitize TAAR1 receptor response.; assay type: functional
[30] = target: Beta-lactamase (Salmonella choleraesuis (strain SC-B67), UniProt Q5J463)
Chain of Beta-lactamase (Salmonella choleraesuis (strain SC-B67), UniProt Q5J463) (Q5J463 whole entry): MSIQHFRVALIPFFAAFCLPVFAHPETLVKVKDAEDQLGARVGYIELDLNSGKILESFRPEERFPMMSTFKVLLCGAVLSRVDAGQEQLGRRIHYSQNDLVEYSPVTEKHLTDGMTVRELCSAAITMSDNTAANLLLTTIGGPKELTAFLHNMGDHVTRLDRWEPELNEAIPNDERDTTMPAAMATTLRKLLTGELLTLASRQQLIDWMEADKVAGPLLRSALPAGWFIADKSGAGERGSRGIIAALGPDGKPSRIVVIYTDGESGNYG

[31] = target: Beta-lactamase (Pseudomonas aeruginosa, UniProt Q79MP6);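 further: biochemical dose-response test of metallo-beta-lactamase enzyme inhibition, read out by epi-absorbance; purified recombinant IMP-1 metallo-beta-lactamase with nitrocefin as substrate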
Chain of Beta-lactamase (Pseudomonas aeruginosa, UniProt Q79MP6) (Q79MP6 whole entry): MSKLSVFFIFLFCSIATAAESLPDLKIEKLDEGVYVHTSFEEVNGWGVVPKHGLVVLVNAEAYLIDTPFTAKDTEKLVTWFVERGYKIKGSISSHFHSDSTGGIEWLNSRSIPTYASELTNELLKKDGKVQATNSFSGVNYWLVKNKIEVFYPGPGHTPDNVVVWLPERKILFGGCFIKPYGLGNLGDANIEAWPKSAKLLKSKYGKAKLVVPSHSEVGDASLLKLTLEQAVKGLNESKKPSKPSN

COc1ccc(Nc2nc(N3CCCC3)nc3ccccc23)c(OC)c1
AC50 [1]: 6.47 µM (active)
EC50 [2]: 1.2 µM (active)
AC50 [3]: 35.6 µM (active)
EC50 [4]: 22.2 µM (active)
EC50 [5]: 0.627 µM (active)
EC50 [6]: 1.97 µM (active)
AC50 [7]: 63.3 µM (active)

COc1ccc(CN2CCN(c3ncccn3)CC2)c(C)c1C
EC50 [8]: 0.263 µM (active)
EC50 [9]: 92.5 µM (inactive)

CC(=O)c1ccc(OCCCC(=O)OCc2nnc(-c3ccc(Cl)cc3)o2)cc1
EC50 [10]: > 91.1 µM (inactive)
EC50 [11]: > 91.1 µM (inactive)

Cn1c(-c2ccc3c(c2)OCO3)cnc1NCc1ccccc1Cl
IC50 [12]: 72 µM (active)
CC50 [13]: 100 µM (active)

O=C1C=C(Nc2ccc(Cl)cc2)C(=O)N1c1ccc(Cl)cc1
IC50 [14]: 21 µM (inactive)
IC50 [15]: 12.5 µM (active)

CCCc1cc(=O)oc2cc(OCC(=O)Nc3ccc(S(N)(=O)=O)cc3)ccc12
IC50 [16]: 6.44 µM (active)
IC50 [17]: 6.11 µM (active)
IC50 [18]: 5.69 µM (active)
IC50 [19]: 15.5 µM (active)
IC50 [20]: 11.5 µM (active)
IC50 [21]: 31 µM (inactive)
IC50 [22]: 1.15 µM (active)
IC50 [23]: > 66.6 µM (inactive)
IC50 [24]: 14.2 µM (active)
IC50 [25]: > 50 µM (inactive)

O=C(O)C1CCCCC1C(=O)NCCc1cccc(Cl)c1 (stereo unspecified)
EC50 [26]: 2.5 µM (active)
IC50 [27]: > 29.9 µM (inactive)
EC50 [28]: > 29.9 µM (inactive)
IC50 [29]: > 29.9 µM (inactive)

CC(C)C(CCN1C(=O)c2ccccc2C1=O)c1ccco1 (stereo unspecified)
IC50 [30]: > 59.6 µM (inactive)
IC50 [31]: 36.8 µM (inactive)
